Results from ChEMBL document CHEMBL1201862, “PubChem BioAssay data set” (2004).
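Test compounds were applied to cells in 96-well plates for 48 hours at 5 doses. GI50 marks 50% less growth.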 Calls of active or inactive are those of the source. Cut-off read from the data, not from the text of the source: active = GI50 up to about 1.1 µM and inactive = higher.

Experiments:
Test in all cases: growth of human tumour cells (NCI), 48 h
[1] = test system: COLO 205
[2] = test system: HCT-116
[3] = test system: HL-60
[4] = test system: HOP-62
[5] = test system: HOP-92
[6] = test system: Hs-578T
[7] = test system: IGROV-1
[8] = test system: MDA-MB-231
[9] = test system: NCI-H226
[10] = test system: NCI/ADR-RES
[11] = test system: OVCAR-4
[12] = test system: OVCAR-8
[13] = test system: RPMI-8226
[14] = test system: RXF 393
[15] = test system: SF-268
[16] = test system: SN12C
[17] = test system: SNB-19
[18] = test system: SR
[19] = test system: SW-620
[20] = test system: U-251

Row | SMILES | GI50 [1] | GI50 [2] | GI50 [3] | GI50 [4] | GI50 [5] | GI50 [6] | GI50 [7] | GI50 [8] | GI50 [9] | GI50 [10] | GI50 [11] | GI50 [12] | GI50 [13] | GI50 [14] | GI50 [15] | GI50 [16] | GI50 [17] | GI50 [18] | GI50 [19] | GI50 [20]
1 | c1ccc(-c2nnc(-c3ccccn3)c3c2C[C@@H]2C[C@@H]4Cc5c(-c6ccccn6)nnc(-c6ccccn6)c5[C@@H]4[C@H]32)nc1 | 35.1 µM (inactive) | 39.8 µM (inactive) | 24.7 µM (inactive) | 41.2 µM (inactive) | 60.4 µM (inactive) | 70.3 µM (inactive) | 58.5 µM (inactive) | > 100 µM (inactive) | 24.2 µM (inactive) | 32.7 µM (inactive) | 38.5 µM (inactive) | 36.8 µM (inactive) | 44.7 µM (inactive) | > 100 µM (inactive) | 35 µM (inactive) | 48.8 µM (inactive) | 80.7 µM (inactive) | 41.4 µM (inactive) | 63.1 µM (inactive) | 22.2 µM (inactive)
2 | COC(=O)c1ccc(C)cc1C1CN=NC12Cc1c(C)cccc1C2=O (stereo not given) | 20.2 µM (inactive) | 25.6 µM (inactive) | 28.4 µM (inactive) | 46.8 µM (inactive) | 38.6 µM (inactive) | 37.6 µM (inactive) | 46.1 µM (inactive) | 38.5 µM (inactive) | 47 µM (inactive) | 20.3 µM (inactive) | 44.1 µM (inactive) | 60.1 µM (inactive) | 36.6 µM (inactive) | 48.3 µM (inactive) | 52.2 µM (inactive) | 36 µM (inactive) | 73.1 µM (inactive) | 33.3 µM (inactive) | 58.9 µM (inactive) | 42.1 µM (inactive)
3 | Nc1nc(Cl)c2ncn(Cc3ccc(CCl)cc3)c2n1 | 3.64 µM (inactive) | 2.76 µM (inactive) | 6.81 µM (inactive) | 6.85 µM (inactive) | 1.64 µM (inactive) | 29.2 µM (inactive) | 9.23 µM (inactive) | 13.1 µM (inactive) | 10.4 µM (inactive) | 3.33 µM (inactive) | 15.6 µM (inactive) | 5.13 µM (inactive) | 3.83 µM (inactive) | 1.3 µM (inactive) | 1.88 µM (inactive) | 12.2 µM (inactive) | 6.78 µM (inactive) | 3.02 µM (inactive) | 3.37 µM (inactive) | 3.56 µM (inactive)
4 | CC(=O)OCCCC(NC(=O)OC(C)(C)C)C(=O)NC(CCCOC(C)=O)C(=O)NC(Cc1ccc([N+](=O)[O-])cc1)C(=O)NCC(=O)OCc1ccccc1 (stereo not given) | 17.6 µM (inactive) | 18.1 µM (inactive) | 3.15 µM (inactive) | 19.5 µM (inactive) | 18.4 µM (inactive) | 14 µM (inactive) | 17.9 µM (inactive) | 13 µM (inactive) | 16.1 µM (inactive) | 19.2 µM (inactive) | 12.3 µM (inactive) | 17.3 µM (inactive) | 19.9 µM (inactive) | 13.1 µM (inactive) | 20.2 µM (inactive) | 17.7 µM (inactive) | 17.8 µM (inactive) | 15.6 µM (inactive) | 16.9 µM (inactive) | 18.4 µM (inactive)
5 | Nc1cc(Cl)cc2cc(Cl)cnc12 | > 100 µM (inactive) | > 100 µM (inactive) | 43.1 µM (inactive) | > 100 µM (inactive) | 31.8 µM (inactive) | 89.7 µM (inactive) | 93.1 µM (inactive) | > 100 µM (inactive) | > 100 µM (inactive) | > 100 µM (inactive) | > 100 µM (inactive) | > 100 µM (inactive) | > 100 µM (inactive) | > 100 µM (inactive) | 82.6 µM (inactive) | > 100 µM (inactive) | > 100 µM (inactive) | 38 µM (inactive) | > 100 µM (inactive) | > 100 µM (inactive)
6 | NC1(c2cc3ccccc3s2)CCCC1 | 22.9 µM (inactive) | 33.8 µM (inactive) | 18.3 µM (inactive) | > 100 µM (inactive) | 51.6 µM (inactive) | > 100 µM (inactive) | > 100 µM (inactive) | 83.8 µM (inactive) | > 100 µM (inactive) | 78.9 µM (inactive) | 42.6 µM (inactive) | > 100 µM (inactive) | 17.7 µM (inactive) | 43.8 µM (inactive) | > 100 µM (inactive) | 57.5 µM (inactive) | > 100 µM (inactive) | 21.1 µM (inactive) | 49.2 µM (inactive) | 48 µM (inactive)
7 | N#CC1(C#N)C2=C(CCCC2)NC(c2ccc(Br)cc2)C1(C#N)C#N (stereo not given) | 1.24 µM (inactive) | 1.84 µM (inactive) | 0.286 µM (active) | 17.4 µM (inactive) | 4.76 µM (inactive) | 17.1 µM (inactive) | 2.83 µM (inactive) | 11.5 µM (inactive) | 20.2 µM (inactive) | 17.2 µM (inactive) | 7.76 µM (inactive) | 2.7 µM (inactive) | 1.91 µM (inactive) | 2.24 µM (inactive) | 7.78 µM (inactive) | 2.33 µM (inactive) | 16.5 µM (inactive) | 0.782 µM (active) | 1.31 µM (inactive) | 13.5 µM (inactive)
